Source: patent US11279702B2, “AMPK activators” (Kallyope, Inc., priority 2020, dated 2022)
Each block holds one compound with its values, some of them ahead of it.

Assays:
[1] = target: Recombinant AMPK α1/β1/γ1 complex (Homo sapiens (Human), UniProt Q13131+Q9Y478); assay: In vitro pAMPK1 kinase activation assay (ADP-Glo, SAMS peptide); assay type: biochemical; settings: for EC50: AMPK α1/β1/γ1 pre-activated with CAMKK2, 12-point curve; for activation at 10 µM: relative to reference compound MK-8722
Chain of Recombinant AMPK α1/β1/γ1 complex (Q13131 whole entry): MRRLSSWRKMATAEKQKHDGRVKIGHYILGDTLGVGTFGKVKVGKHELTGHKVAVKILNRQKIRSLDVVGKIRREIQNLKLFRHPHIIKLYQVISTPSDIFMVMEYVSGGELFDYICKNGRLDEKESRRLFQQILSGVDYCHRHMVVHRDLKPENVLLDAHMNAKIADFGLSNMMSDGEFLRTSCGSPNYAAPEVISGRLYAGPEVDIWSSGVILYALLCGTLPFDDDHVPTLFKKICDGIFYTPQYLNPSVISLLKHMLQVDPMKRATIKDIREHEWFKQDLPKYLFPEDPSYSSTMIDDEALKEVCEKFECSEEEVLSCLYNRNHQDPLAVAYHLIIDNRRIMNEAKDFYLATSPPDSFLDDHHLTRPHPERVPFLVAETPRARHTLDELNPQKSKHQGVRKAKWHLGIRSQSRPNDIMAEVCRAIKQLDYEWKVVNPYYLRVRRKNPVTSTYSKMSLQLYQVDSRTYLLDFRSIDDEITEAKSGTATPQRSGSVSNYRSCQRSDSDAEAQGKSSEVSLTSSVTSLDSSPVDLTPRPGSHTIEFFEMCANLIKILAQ
Chain of Recombinant AMPK α1/β1/γ1 complex (Q9Y478 whole entry): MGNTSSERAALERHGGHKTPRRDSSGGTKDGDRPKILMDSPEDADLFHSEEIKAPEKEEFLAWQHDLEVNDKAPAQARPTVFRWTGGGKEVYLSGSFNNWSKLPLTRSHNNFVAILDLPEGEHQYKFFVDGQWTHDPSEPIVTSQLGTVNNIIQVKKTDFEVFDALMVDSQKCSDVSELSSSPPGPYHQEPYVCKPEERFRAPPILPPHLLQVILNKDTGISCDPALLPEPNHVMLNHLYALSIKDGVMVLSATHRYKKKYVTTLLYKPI
Chain of Recombinant AMPK α1/β1/γ1 complex (P54619 whole entry partner): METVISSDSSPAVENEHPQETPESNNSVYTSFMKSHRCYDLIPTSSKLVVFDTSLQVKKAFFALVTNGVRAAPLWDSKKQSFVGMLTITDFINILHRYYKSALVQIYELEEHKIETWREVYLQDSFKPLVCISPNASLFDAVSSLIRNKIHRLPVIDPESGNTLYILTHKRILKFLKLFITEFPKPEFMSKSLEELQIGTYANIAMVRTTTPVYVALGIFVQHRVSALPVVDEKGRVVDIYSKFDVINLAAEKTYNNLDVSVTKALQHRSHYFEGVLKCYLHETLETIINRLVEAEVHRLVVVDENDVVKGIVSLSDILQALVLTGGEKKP
Experimental: Compound effect on AMPK enzyme activation was determined in a cell-free format with a 12-point concentration curve. The ADP-Glo detection system was used to determine phosphorylation of a SAMS peptide substrate. Recombinant AMPK α1/β1/γ1 complex was pre-activated by phosphorylation with CAMKK2 followed by incubated with compound for 15 minutes prior to the SAMS phosphorylation reaction. Activity curves and EC50 values were fitted by interpolation to an ATP:ADP standard curve as indicated by the ADP-Glo manufacturer using Prism software. Activity at 10 μM is reported relative to a reference compound, MK-8722 (Science 2017, 357(6350):507-511).

BCRP = BCRP (Homo sapiens (Human), UniProt Q9UNQ0); assay: in vitro; assay type: in vitro ADME
Chain of BCRP (Q9UNQ0 whole entry): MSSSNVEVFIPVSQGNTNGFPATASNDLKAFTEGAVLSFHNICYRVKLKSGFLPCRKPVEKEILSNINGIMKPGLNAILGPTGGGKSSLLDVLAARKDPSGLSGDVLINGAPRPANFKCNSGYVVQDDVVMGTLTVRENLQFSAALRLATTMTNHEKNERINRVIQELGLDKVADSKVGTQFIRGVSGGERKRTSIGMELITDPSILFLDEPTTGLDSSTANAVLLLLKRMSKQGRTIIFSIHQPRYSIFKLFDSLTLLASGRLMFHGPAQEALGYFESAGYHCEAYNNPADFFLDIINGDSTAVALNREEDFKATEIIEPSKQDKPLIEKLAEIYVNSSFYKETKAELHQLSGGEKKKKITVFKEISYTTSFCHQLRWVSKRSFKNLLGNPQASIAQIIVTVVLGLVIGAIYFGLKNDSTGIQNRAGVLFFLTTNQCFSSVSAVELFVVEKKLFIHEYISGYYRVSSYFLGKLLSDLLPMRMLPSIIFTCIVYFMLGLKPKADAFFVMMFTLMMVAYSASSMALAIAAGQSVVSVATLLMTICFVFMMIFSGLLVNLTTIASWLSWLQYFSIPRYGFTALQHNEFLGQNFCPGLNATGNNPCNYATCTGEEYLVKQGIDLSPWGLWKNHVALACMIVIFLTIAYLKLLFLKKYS
Experimental: Caco-2 cells purchased from ATCC were seeded onto […] (PET) in 96-well BD Insert plates at 1×10^5 cells/cm^2, and refreshed medium every 4-5 days until to the 21st to 28th day for confluent cell monolayer formation. The transport buffer in the study was HBSS with 10 mM HEPES at pH 7.40±0.05. Compounds were tested at 2 μM in the presence or absence of 30 μM novobiocin bi-directionally in duplicate. E3S was tested at 5 μM in the presence or absence of 30 μM novobiocin bi-directionally in duplicate, while nadolol and metoprolol were tested at 2 μM in the absence of novobiocin in A to B direction in duplicate. Final DMSO concentration was adjusted to less than 1%. The plate was incubated for 2 hours in CO2 incubator at 37+1° C., with 5% CO2 at saturated humidity without shaking. All samples were mixed with acetonitrile containing internal standard and were centrifuged at 4000 rpm for 10 min. Subsequently, 100 μL supernatant solution was diluted with 100 μL distilled water for LC/MS/MS analysis. Concentrations of test and control compounds in starting solution, donor solution, and receiver solution were quantified by LC/MS/MS, using peak area ratio of analyte/internal standard.

[2] = tested on: Acetyl CoA Carboxylase (ACC) Phosphorylation in Mouse Muscle; assay: Level of ACC phosphorylation in mouse muscle; assay type: in vivo, C57BL/6J mice
Experimental: Systemic AMPK target engagement in vivo can be assessed by measuring the site-specific phosphorylation of a direct AMPK substrate, acetyl-coenzyme A carboxylase (ACC), in a well perfused tissue such as muscle.
Compounds were formulated in vehicle (0.25% methyl cellulose, 5% Tween 80, 0.02% sodium dodecyl sulfate (SDS) in Hanks' Buffered Salt Solution with Ca^2+ and Mg^2+). Male C57BL/6J mice were administered vehicle or compound once daily for 5 days. On the final day of dosing (day 1 for acute assessment, day 5 for sub-chronic assessment), mice were euthanized by cervical dislocation five hours post dose and samples of skeletal muscle (gastrocnemius) were removed and snap frozen in liquid nitrogen.
Frozen muscle tissues were homogenized. Homogenates were analyzed for protein concentration and equal amounts of protein were assayed for total and phosphorylated ACC (p-ACC) levels using Meso Scale Discovery's Multi-array assay kit. The ratio of p-ACC/total ACC was determined for each sample.

[3] = Pharmacokinetics (oral bioavailability, IV parameters); settings: mouse, in vivo; C57BL/6 mice, IV 1 mg/kg, PO 30 mg/kg
Experimental: Compounds were tested for pharmacokinetics in C57BL/6 mice. Compounds 2, 4, and A1 were dosed IV at 1 mg/kg as a formulation of 0.5 mg/mL in 5% DMSO+30% PEG400+65% water and PO at 30 mg/kg as a formulation of 6 mg/mL in 0.25% MC+5% Tween 80+0.02% SDS. Compound 1 was dosed IV at 1 mg/kg as a formulation of 0.50 mg/mL in 5% DMSO+30% PEG400+65% water and PO at 30 mg/kg as a formulation of 6 mg/mL in 0.5% MC+0.5% Tween 80.

[4] = tested on: Mouse In Vivo Chemotherapy-Induced Intestinal Injury Model; assay: Diarrhea in chemotherapy (5FU)-induced intestinal injury model; set-up: species or system BALB/c mice; settings: 30 mg/kg BID
Experimental: Compounds were formulated in vehicle (0.25% methyl cellulose, 5% Tween 80, 0.02% sodium dodecyl sulfate (SDS) in Hanks' Buffered Salt Solution with Ca2+ and Mg2+). On day 1, either saline or a 400 mg/kg dose of 5-fluorouracil (5FU) in saline was administered by intraperitoneal injection to BALB/c mice. Starting on day 2, vehicle or compound was administered once or twice a day by oral gavage. In some instances, compound was also administered once or twice a day by oral gavage from day −3 to day −1 (pre-5FU). From days 5 to 6 post-5FU, the animals were scored for diarrhea severity once a day. The diarrhea was scored 0-3 as follows: 0—normal consistency (black and solid), 1—soft (black and a bit lighter/yellow), 2—loosely shaped stool (yellowish and somewhat watery), 3—extreme diarrhea (very watery). Day 5 and day 6 diarrhea scores following administration of certain compounds were lower than vehicle control mice. […] In addition, Compound 1 was efficacious at doses as low as 3 mg/kg BID (6 mg/kg total daily dose).

Structure (SMILES): CCOP(=O)(O)CSc1nc2nc(-c3ccc(-c4ccccc4O)cc3)c(Cl)cc2[nH]1 [Compound 3, ethyl hydrogen (((6-chloro-5-(2′-hydroxy-[1,1′-biphenyl]-4-yl)-1H-imidazo[4,5-b]pyridin-2-yl)thio)methyl)phosphonate]
EC50 [1]: 2.38 nM
activation at 10 µM [1]: 49%

Structure (SMILES): C[C@]12CC[C@@H]3c4ccc(OS(=O)(=O)O)cc4CC[C@H]3[C@@H]1CCC2=O [Compound E3S, reference compound]
Efflux Ratio (BCRP; Caco-2): 36.79
Mean Recovery (%) A to B (BCRP; Caco-2): 76.60%
Mean Recovery (%) B to A (BCRP; Caco-2): 98.34%

Structure (SMILES): O[C@@H]1CO[C@H]2[C@@H]1OC[C@H]2Oc1nc2cc(Cl)c(-c3ccc(-c4ccccc4)cc3)cc2[nH]1 [MK-8722, reference compound]
% p-ACC/ACC ratio change vs. Vehicle, Sub-chronic (5 days) ([2]; 30 mg/kg once daily for 5 days, five hours post dose, gastrocnemius): 259.0%
% p-ACC/ACC ratio change vs. Vehicle, Acute (5 hr) ([2]; 30 mg/kg, day 1, five hours post dose, gastrocnemius): 275.7%
ratio of pACC/total ACC compared with vehicle control mice ([2]; 30 mg/kg, one-way ANOVA vs vehicle (Dunnett's post-test)): significantly higher

Structure (SMILES): CC(C)(C)NCC(O)COc1cccc2c1CC(O)C(O)C2 (stereo not drawn) [nadolol, reference compound]
Mean Papp (10^−6 cm/s) A to B (BCRP; Caco-2): 0.11 10^−6 cm/s
Mean Recovery (%) A to B (BCRP; Caco-2): 99.73%

Structure (SMILES): COCCc1ccc(OCC(O)CNC(C)C)cc1 (stereo not drawn) [metoprolol, reference compound]
Papp A→B at 2 h, 2 μM (BCRP; human, Caco-2, pH 7.4, Mean Papp (10^−6 cm/s) A to B): 14.7 ×10⁻⁶ cm/s
recovery at 2 h, 2 μM (BCRP; human, Caco-2, pH 7.4, Mean Recovery (%) A to B): 95.4%

The next lines start with results.

EC50 [1]: 1.1 nM
activation at 10 µM [1]: 51%
Structure (SMILES): O=C(O)CSc1nc2nc(-c3ccc(-c4ccc(-n5cncn5)cc4O)cc3)c(Cl)cc2[nH]1 [Compound 9, 2-((6-chloro-5-(2′-hydroxy-4′-(1H-1,2,4-triazol-1-yl)-[1,1′-biphenyl]-4-yl)-1H-imidazo[4,5-b]pyridin-2-yl)thio)acetic Acid]

EC50 [1]: 1120 nM
activation at 10 µM [1]: 18%
Structure (SMILES): CC(C)(C)CCc1ccc(-c2ccc(-c3nc4nc(SCC(=O)O)[nH]c4cc3Cl)cc2)c(O)c1 [Compound 6, 2-((6-chloro-5-(4′-(3,3-dimethylbutyl)-2′-hydroxy-[1,1′-biphenyl]-4-yl)-1H-imidazo[4,5-b]pyridin-2-yl)thio)acetic Acid]

EC50 [1]: 0.97 nM
activation at 10 µM [1]: 47%
bioavailability [3]: < 1%
Structure (SMILES): CP(=O)(O)CSc1nc2nc(-c3ccc(-c4ccccc4O)cc3)c(Cl)cc2[nH]1 [Compound 2, (((6-chloro-5-(2′-hydroxy-[1,1′-biphenyl]-4-yl)-1H-imidazo[4,5-b]pyridin-2-yl)thio)methyl)(methyl)phosphinic Acid]

EC50 [1]: 43 nM
activation at 10 µM [1]: 42%
Structure (SMILES): O=C(O)CSc1nc2nc(-c3ccc(N4CC[C@H](O)C4)cc3)c(Cl)cc2[nH]1 [Compound 7, (S)-2-((6-chloro-5-(4-(3-hydroxypyrrolidin-1-yl)phenyl)-1H-imidazo[4,5-b]pyridin-2-yl)thio)acetic Acid]

EC50 [1]: 20 nM
activation at 10 µM [1]: 39%
Structure (SMILES): O=C(O)CSc1nc2nc(-c3ccc(-c4ccc(-n5cncn5)cc4)cc3)c(Cl)cc2[nH]1 [Compound 8, 2-((5-(4′-(1H-1,2,4-triazol-1-yl)-[1,1′-biphenyl]-4-yl)-6-chloro-1H-imidazo[4,5-b]pyridin-2-yl)thio)acetic Acid]

EC50 [1]: 0.55 nM
activation at 10 µM [1]: 28%
bioavailability [3]: < 1%
Structure (SMILES): O=P(O)(O)CSc1nc2nc(-c3ccc(-c4ccccc4O)cc3)c(Cl)cc2[nH]1 [Compound 4, (((6-chloro-5-(2′-hydroxy-[1,1′-biphenyl]-4-yl)-1H-imidazo[4,5-b]pyridin-2-yl)thio)methyl)phosphonic Acid]
Diarrhea Score % Change vs. Vehicle ([4]; Day 5): −58%
Diarrhea Score ([4]; Day 5, score 0-3): 0.37
Diarrhea Score % Change vs. Vehicle ([4]; Day 6): −65%
Diarrhea Score ([4]; Day 6, score 0-3): 0.63
